# In US12643899B2, “Antiviral agents, uses thereof and methods for their preparation” (The University of British Columbia, priority 2020, dated 2026):
# Where two headings read alike, the source gives them in different places.
# Assays:
# ZIKV [1] = assay: ZIKV infectivity by semisolid overlay plaque assay after pre-treatment of A549 and U87 MG cells; type: cell-based, Zika virus; conditions: for reduction in ZIKV titer: CA 250 nM 1 h pre-treatment, MOI 1.0, 3 d
# ZIKV [2] = assay: Secreted NS1 (sNS1) ELISA, ZIKV-infected A549 cells; type: cell-based, Zika virus; conditions: Zika virus, 24 h pre-treatment, MOI 1.0, 2 d
# Procedure: (§1) Error bars represent SD among 2 biological replicates.
# (§2) Cultured A549 cells were treated with various concentrations of CA or PF-429242 for 24 h before being washed with PBS and inoculated with ZIKV (ZIKV strain VR 1843, Puerto Rico, 2015; ATCC) at MOI 1.0 for 1 h. Following the removal of the inoculum, cells were incubated in fresh media for 2 d before the supernatant was collected, clarified, and secreted NS1 protein abundance was measured by an ELISA kit (BioFront Technologies) according to the manufacturer's instructions. Curve fitting was performed in Igor Pro (WaveMetrics) using a hyperbolic fit algorithm (FIG. 4; upper and middle plots) and IC50 and TI values obtained. IC50 and TI values were also obtained for CA via plaque assay (PFU; FIG. 4, lower plot). FIG. 4 (upper plot) is an ED50 curve for the PF inhibitor based on the detection of secreted Non-Structural protein 1 (sNS1), secreted viral biomarker. sNS1 was detected using an Elisa test (commercially available). FIG. 4 (middle plot) is an ED50 curve for CA based on the detection of secreted Non-Structural protein 1 (sNS1), secreted viral biomarker. sNS1 was detected using an Elisa test (commercially available).
# ZIKV [3] = assay: Plaque assay (PFU) dose response, ZIKV-infected A549 cells; type: cell-based; conditions: Zika virus
# Procedure: as §1, §2
# Bottom: ED50 curve for CA based on the detection of secreted infectious virus particles, as viral biomarker. Titer of the infectious virus particles (Plaque forming units) determined using plaque assays.
# ZIKV replicon = ZIKV replicon luminescence assay in Huh-7.5 replicon-containing cells; type: cell-based, Zika virus; conditions: Huh-7.5 ZIKV replicon cells, 48 h
# Procedure: Error bars represent SD among 3 biological replicates.
# Cultured Huh-7.5.1 cells and Huh-7.5 ZIKV replicon-containing cells (Xie 2016) were treated with various concentrations of CA or putative ZIKV replication inhibitor NITD-008 (Deng 2016) for 48 h. Cells were then washed with PBS and ViviRen™ Live Cell Substrate (Promega) was added to a final concentration of 30 μM. Following incubation for 2 min at room temperature, luminescence was measured. Curve fitting was performed in Igor Pro (WaveMetrics) using a sigmoidal fit algorithm (FIG. 5).
# DENV-3 = DENV-3 intracellular dsRNA (Cellomics) in A549 cells; type: cell-based, dengue virus
# Procedure: Error bars represent SD among 3 biological replicates. Cultured A549 cells were treated with the indicated concentrations of CA (1=Mock, 2=0 M, 3=1 μM, 4=5 M, 5=10 M, 6=20 µM) or PF-429242 (7=15 M) for 1 h before being washed with PBS and infected with DENV-2, DENV-3, or DENV-4 at MOI 1.0 for 48 h. Cells were labeled for viral dsRNA with […] then imaged and quantified using the Cellomics ArrayScan™ VTI High Content Screening system.
# Viruses. ZIKV: ZIKV strain PRVABC59 (Puerto Rico/2015) (ATCC #VR-1843) was used in these studies, specifically three separate stocks generated in Vero E6 cells with titres of 1.35×10^8 pfu/mL, 1.0×10^7 pfu/mL, and 2.9×10^6 pfu/mL respectively. DENV strains: DENV-2 strain NGC, DENV-3 strain H-87, and DENV-4 strain H-241 were kindly provided by National Microbiology Laboratory, Winnipeg, MB, Canada.
# A549 cells were seeded onto Corning tissue culture treated 96 well plates and incubated at 37 degrees Celsius and 5% CO2 for 24 h. CA was diluted in MEM complete media to concentrations of 1 μM, 5 μM, 10 μM, 20 μM, including a 0 μM condition. Diluted CA was added to each well and cells were incubated at 37 degrees Celsius and 5% CO2 for 1 h. After 1 h, cells were washed once with PBS to remove CA and were then infected with DENV-2, -3 or -4 at an MOI of 1. […] Labeled 96 well plates were imaged and quantified using the Cellomics ArrayScan VTI. […]
# SARS-CoV-2 = SARS-CoV-2 intracellular viral RNA and nucleocapsid protein in Caco-2 cells; type: cell-based
# ZIKV [4] = assay: Extracellular ZIKV titer in infected brain organoids; type: cell-based, Zika virus; conditions: 1 μM CA, 72 hours
# Procedure: FIG. 18 is a plot showing extracellular ZIKV titer for four brain organoid systems after treatment with 1 μM CA for 72 hours in comparison to untreated controls.
# (§3) FIG. 17 is a schematic showing the general method 20 used in Example 6. Referring to FIG. 17, following growth of the brain organoids in STEMdiff™ media 22 (4 organoids/well), the media was aspirated 24. Then, 500 μL ZIKV at the desired MOI in fresh media was added 26 and the brain organoids incubated at 37° C. for 3 hours with gentle shaking 28. The brain organoids were then washed with 2×1 mL PBS 30, and fresh media and CA or cladoniamide C (CC) added to the desired concentration 32 prior to incubation for the desired time at 37° C. 34. The supernatant was collected and frozen at −86° C. 36 prior to analysis and the brain organoids transferred to an Eppendorf with paraformaldehyde for electron microscopy 38.
# (§4) FIG. 18 is a plot showing the anti-ZIKV activity of cladoniamide A (incubation with 1 μM CA for 72 hours; 2 biological replicates, each with 4 organoids/well) using four brain organoid systems. There was a greater than 4-log reduction in extracellular ZIKV titer when treated with CA. […] FIGS. 20 and 21 show plots showing the anti-ZIKV activity of CA and CC (incubation with 10 μM CA or CC for 69 hours, MOI 1; 4 technical replicates as there were 4 organoids/[…]).
# ZIKV [5] = assay: NS1 and dsRNA in ZIKV-infected brain organoids; type: cell-based, Zika virus; conditions: 10 μM, 69 hours, MOI 1
# Procedure: as §3, §4
compound,measurement,setting,value
"COc1c2n(c3ccccc13)[C@]1(O)C(=O)N(C)C(=O)[C@]1(O)c1c-2[nH]c2ccc(Cl)cc12 [CA, (11S,15R)-7-chloro-11,15-dihydroxy-23-methoxy-13-methyl-3,13,16-triazahexacyclo[14.7.0.0^2,10.0^4,9.0^11,15.0^17,22]tricosa-1(23),2(10),4(9),5,7,17,19,21-octaene-12,14-dione]",reduction in ZIKV titer,ZIKV [1]; A549 cells,greater than 4 log
same,reduction in ZIKV titer,ZIKV [1]; U87 MG cells,greater than 4 log
same,inhibition of production of infectious ZIKV virions,"ZIKV [1]; at 50 nm (so in the source), FIG. 3",dramatically inhibited
same,IC50,ZIKV [2],0.08 µM
same,IC50,ZIKV [3],0.11 µM
same,ZIKV replication inhibition,ZIKV replicon,not a ZIKV replication inhibitor
same,activity against Dengue virus 3 in vitro,"DENV-3; 1-20 μM, FIG. 8 middle plots",good activity
same,IC50,"DENV-3; Dengue virus, DENV3, DENV-3, intracellular dsRNA (Cellomics)",1.5 µM
same,EC50,"SARS-CoV-2; Severe acute respiratory syndrome coronavirus 2, Caco-2, read-out: ED50, intracellular SARS-CoV-2 nucleocapsid protein, Caco-2 cells, 3 hours pre-treatment",0.005 µM
same,EC50,"SARS-CoV-2; Severe acute respiratory syndrome coronavirus 2, Caco-2, read-out: ED50, intracellular viral RNA, Caco-2 cells, 3 hours pre-treatment",0.002 µM
same,reduction in extracellular ZIKV titer,ZIKV [4],greater than 4 log
same,"anti-ZIKV activity in brain organoids (NS1, dsRNA)",ZIKV [5],showed anti-ZIKV activity
